Assay results from ChEMBL document CHEMBL3132769, “Fragment growing to retain or alter the selectivity of anchored kinase hinge-binding fragments” (Medchemcomm, 2014).

Legend:
[1] = biological target: T1, Testis-specific serine/threonine-protein kinase 1 (Homo sapiens) (UniProt Q9BXA7); assay: Inhibition of human full length TSSK1 expressed in baculovirus assessed as substrate phosphorylation using fluorescence-labelled peptides as substrate at 95 uM after 90 mins by microfluidic peptide phosphorylation assay
T1 sequence (whole entry): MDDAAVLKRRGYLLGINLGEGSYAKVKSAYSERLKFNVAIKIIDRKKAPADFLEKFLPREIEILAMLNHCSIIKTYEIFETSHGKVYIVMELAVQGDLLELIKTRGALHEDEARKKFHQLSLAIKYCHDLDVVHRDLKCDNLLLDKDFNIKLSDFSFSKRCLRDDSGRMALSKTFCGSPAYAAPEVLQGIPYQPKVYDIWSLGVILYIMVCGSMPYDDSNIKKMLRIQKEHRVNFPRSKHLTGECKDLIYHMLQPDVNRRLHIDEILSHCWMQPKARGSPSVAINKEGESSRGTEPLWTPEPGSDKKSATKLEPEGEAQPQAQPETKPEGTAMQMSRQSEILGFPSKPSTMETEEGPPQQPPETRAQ

[2] = biological target: Tyrosine-protein kinase Lck (Homo sapiens) (UniProt P06239); assay: Inhibition of human full length LCK expressed in baculovirus assessed as substrate phosphorylation using fluorescence-labelled peptides as substrate at 95 uM after 90 mins by microfluidic peptide phosphorylation assay
Tyrosine-protein kinase Lck (Homo sapiens), sequence (P06239 2-509 limits assumed): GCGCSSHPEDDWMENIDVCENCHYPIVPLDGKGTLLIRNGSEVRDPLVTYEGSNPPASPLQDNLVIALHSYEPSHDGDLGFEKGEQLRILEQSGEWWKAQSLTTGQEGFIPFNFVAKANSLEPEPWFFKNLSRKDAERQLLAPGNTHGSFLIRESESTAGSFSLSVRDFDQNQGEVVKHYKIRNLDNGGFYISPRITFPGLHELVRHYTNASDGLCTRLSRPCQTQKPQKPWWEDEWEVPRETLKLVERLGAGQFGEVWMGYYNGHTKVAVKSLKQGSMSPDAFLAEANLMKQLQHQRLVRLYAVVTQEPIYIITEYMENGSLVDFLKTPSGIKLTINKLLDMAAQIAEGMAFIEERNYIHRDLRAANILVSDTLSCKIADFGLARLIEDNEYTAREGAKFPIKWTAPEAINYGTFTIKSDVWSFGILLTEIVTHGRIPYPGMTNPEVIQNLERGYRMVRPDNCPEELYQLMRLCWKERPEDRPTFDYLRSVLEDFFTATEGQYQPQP

[3] = biological target: Fibroblast growth factor receptor 1 (Homo sapiens) (UniProt P11362); assay: Inhibition of human FGFR1 catalytic domain expressed in baculovirus assessed as substrate phosphorylation using fluorescence-labelled peptides as substrate at 0.06 uM after 90 mins by microfluidic peptide phosphorylation assay
Fibroblast growth factor receptor 1 (Homo sapiens), sequence (P11362 22-822 limits assumed): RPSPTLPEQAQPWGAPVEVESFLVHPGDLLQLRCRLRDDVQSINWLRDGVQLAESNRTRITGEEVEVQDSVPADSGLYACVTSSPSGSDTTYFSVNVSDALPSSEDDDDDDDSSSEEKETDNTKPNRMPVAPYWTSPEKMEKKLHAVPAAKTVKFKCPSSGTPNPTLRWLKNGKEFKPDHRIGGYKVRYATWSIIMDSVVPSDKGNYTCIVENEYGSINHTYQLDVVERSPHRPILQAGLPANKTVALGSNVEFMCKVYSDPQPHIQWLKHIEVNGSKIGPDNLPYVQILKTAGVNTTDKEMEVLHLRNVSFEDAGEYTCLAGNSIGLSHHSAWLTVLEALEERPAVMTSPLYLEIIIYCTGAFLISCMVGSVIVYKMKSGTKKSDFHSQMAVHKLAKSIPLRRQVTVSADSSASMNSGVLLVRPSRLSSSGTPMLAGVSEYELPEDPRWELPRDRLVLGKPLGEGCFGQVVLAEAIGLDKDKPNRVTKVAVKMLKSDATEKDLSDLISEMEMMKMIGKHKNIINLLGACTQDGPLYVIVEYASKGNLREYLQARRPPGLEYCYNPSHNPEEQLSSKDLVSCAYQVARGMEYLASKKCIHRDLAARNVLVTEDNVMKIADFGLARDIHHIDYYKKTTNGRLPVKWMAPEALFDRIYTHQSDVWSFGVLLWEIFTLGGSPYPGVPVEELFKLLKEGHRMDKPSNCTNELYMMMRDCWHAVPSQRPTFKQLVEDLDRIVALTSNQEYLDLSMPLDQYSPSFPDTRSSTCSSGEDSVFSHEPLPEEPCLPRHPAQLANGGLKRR

[4] = biological target: Tyrosine-protein kinase Lck (Homo sapiens) (UniProt P06239); assay: Inhibition of human full length LCK expressed in baculovirus assessed as substrate phosphorylation using fluorescence-labelled peptides as substrate at 0.06 uM after 90 mins by microfluidic peptide phosphorylation assay
[5] = biological target: T2, Serine/threonine-protein kinase D2 (Homo sapiens) (UniProt Q9BZL6); assay: Inhibition of human full length PKD2 expressed in baculovirus assessed as substrate phosphorylation using fluorescence-labelled peptides as substrate at 0.06 uM after 90 mins by microfluidic peptide phosphorylation assay
T2 sequence (whole entry): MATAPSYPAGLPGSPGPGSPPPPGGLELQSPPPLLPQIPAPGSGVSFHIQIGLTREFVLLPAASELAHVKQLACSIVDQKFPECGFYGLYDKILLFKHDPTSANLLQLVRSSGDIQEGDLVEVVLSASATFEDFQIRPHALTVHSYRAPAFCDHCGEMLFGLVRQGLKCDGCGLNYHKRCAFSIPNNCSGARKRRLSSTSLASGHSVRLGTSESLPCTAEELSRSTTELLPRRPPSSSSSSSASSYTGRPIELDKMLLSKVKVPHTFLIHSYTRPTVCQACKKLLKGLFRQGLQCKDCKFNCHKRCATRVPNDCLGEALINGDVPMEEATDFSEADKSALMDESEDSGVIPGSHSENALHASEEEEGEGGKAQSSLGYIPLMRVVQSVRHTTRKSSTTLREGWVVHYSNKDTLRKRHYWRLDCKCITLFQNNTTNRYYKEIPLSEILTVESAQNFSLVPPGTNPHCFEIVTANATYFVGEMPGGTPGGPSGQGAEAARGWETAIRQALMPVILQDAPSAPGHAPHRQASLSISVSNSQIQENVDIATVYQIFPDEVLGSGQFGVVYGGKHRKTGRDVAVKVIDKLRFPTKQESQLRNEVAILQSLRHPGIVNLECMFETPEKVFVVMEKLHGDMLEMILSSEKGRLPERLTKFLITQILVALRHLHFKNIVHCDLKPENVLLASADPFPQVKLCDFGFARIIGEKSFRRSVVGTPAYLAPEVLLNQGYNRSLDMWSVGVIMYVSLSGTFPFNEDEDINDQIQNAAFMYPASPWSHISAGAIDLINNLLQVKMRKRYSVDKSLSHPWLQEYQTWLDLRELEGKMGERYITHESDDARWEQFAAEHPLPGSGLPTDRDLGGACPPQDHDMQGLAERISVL

[6] = biological target: T3, cGMP-dependent protein kinase 1 (Homo sapiens) (UniProt Q13976); conditions: 0.1 uM
T3 sequence (whole entry): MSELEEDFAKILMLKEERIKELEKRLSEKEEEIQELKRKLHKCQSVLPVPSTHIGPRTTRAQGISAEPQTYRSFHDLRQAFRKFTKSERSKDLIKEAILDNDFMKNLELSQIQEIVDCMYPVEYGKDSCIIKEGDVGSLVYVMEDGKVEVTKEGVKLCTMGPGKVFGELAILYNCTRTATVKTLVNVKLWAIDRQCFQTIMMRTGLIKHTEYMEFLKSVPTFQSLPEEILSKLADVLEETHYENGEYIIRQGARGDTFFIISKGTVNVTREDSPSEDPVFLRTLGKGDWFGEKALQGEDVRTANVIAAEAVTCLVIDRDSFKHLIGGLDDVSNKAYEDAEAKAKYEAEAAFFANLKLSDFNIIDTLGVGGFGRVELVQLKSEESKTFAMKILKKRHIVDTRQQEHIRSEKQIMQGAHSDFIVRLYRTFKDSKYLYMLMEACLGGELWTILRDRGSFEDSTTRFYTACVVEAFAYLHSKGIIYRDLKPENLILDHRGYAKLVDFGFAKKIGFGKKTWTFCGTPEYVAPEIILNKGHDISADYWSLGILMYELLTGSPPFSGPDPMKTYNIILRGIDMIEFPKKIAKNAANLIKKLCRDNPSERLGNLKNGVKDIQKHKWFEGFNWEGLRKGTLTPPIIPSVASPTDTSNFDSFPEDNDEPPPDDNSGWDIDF
Description: Inhibition of human full length PKG-1a expressed in baculovirus assessed as substrate phosphorylation using fluorescence-labelled peptides as substrate at 0.1 uM after 90 mins by microfluidic peptide phosphorylation assay

[7] = biological target: T2, Serine/threonine-protein kinase D2 (Homo sapiens); conditions: 0.1 uM
Description: Inhibition of human full length PKD2 expressed in baculovirus assessed as substrate phosphorylation using fluorescence-labelled peptides as substrate at 0.1 uM after 90 mins by microfluidic peptide phosphorylation assay

[8] = tested on: Tyrosine-protein kinase ABL1 (Homo sapiens), P00519 [H396P]; assay: Inhibition of human truncated ABL H396P mutant expressed in baculovirus assessed as substrate phosphorylation using fluorescence-labelled peptides as substrate at […] after 90 mins by microfluidic peptide phosphorylation assay
[9] = biological target: T3, cGMP-dependent protein kinase 1 (Homo sapiens); assay: Inhibition of human full length PKG-1a expressed in baculovirus assessed as substrate phosphorylation using fluorescence-labelled peptides as substrate at 9 uM after 90 mins by microfluidic peptide phosphorylation assay
[10] = biological target: Casein kinase I isoform delta (Homo sapiens) (UniProt P48730); assay: Inhibition of human CK1D catalytic domain expressed in Escherichia coli cell assessed as substrate phosphorylation using fluorescence-labelled peptides as substrate at 70 uM after 90 mins by microfluidic peptide phosphorylation assay
Casein kinase I isoform delta (Homo sapiens), sequence (P48730 whole entry, looked up, the tested form may be a part, canonical isoform): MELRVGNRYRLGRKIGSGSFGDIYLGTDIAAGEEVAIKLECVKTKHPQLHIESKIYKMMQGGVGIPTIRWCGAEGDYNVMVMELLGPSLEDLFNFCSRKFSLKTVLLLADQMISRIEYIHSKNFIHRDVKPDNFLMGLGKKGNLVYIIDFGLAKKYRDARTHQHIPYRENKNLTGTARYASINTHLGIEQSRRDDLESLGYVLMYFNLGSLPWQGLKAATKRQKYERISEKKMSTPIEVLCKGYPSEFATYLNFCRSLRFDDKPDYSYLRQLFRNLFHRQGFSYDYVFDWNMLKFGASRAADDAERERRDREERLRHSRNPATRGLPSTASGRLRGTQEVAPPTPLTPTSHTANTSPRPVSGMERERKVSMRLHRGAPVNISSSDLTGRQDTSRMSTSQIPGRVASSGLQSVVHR

For `NCCc1ccc(-c2ncnc3[nH]cnc23)cc1`, the inhibition [1] was 89% and the inhibition [2] was 68.5%.

Work on `NC1(Cc2ccc(Cl)cc2)CCN(c2ncnc3[nH]ccc23)CC1` yielded an inhibition [3] of 0%, an inhibition [4] of 0% and an inhibition [5] of 1.5%.

`C[C@H](CN(C)C)Oc1nc(Nc2cc3cccc(Cl)c3cn2)cnc1C#N` was tested, and the inhibition [6] was 0% and the inhibition [7] was 0%.

`COC(=O)c1cnc(Nc2cnc(C#N)cn2)cc1NCC1CCNCC1` was tested, and the inhibition [8] was 1%.

With `NCC1CN(c2ncnc3[nH]c4cnccc4c23)CCO1` (stereo not given) the inhibition [9] was 15.5%.

Work on `CNCc1ccc(-c2ncnc3[nH]cnc23)cc1` yielded an inhibition [10] of 46%.
